Active and inactive are the calls of the source. The rule behind the calls is not given here.
Experiments:
Format in all cases: functional, organism-based
Plasmodium chabaudi [1] = test: Antimicrobial activity against chloroquine-resistant Plasmodium chabaudi ASCQ infected in NIH mice (Mus musculus) assessed as potentiation of 2.5 mg/kg chloroquine-mediated antimalarial activity at 100 mg/kg, perorally administered after 72 hrs post inoculation measured on day 4 post infection
Plasmodium falciparum [2] = test: Antimicrobial activity against chloroquine-resistant Plasmodium falciparum 3D7 infected in human erythrocytes assessed as potentiation of choloroquine-mediated antimalarial activity by light microscopy
Plasmodium falciparum [3] = test: Antimicrobial activity against chloroquine-resistant Plasmodium falciparum Dd2 infected in human erythrocytes assessed as potentiation of choloroquine-mediated antimalarial activity by light microscopy
Plasmodium chabaudi [4] = test: Antimicrobial activity against chloroquine-resistant Plasmodium chabaudi ASCQ infected in NIH mice (Mus musculus) at 2.5 mg/kg, perorally administered after 72 hrs post inoculation measured on day 4 post infection; design: dose 2.5 mg/kg
Plasmodium chabaudi [5] = test: Antimicrobial activity against chloroquine-sensitive Plasmodium chabaudi ASS infected in NIH mice (Mus musculus) assessed as potentiation of 2.5 mg/kg chloroquine-mediated antimalarial activity at 100 mg/kg, perorally administered after 72 hrs post inoculation measured on day 4 post infection
Plasmodium chabaudi [6] = test: Antimicrobial activity against chloroquine-resistant Plasmodium chabaudi ASCQ infected in NIH mice (Mus musculus) assessed as potentiation of 2.5 mg/kg chloroquine-mediated antimalarial activity at 10 to 160 mg/kg, perorally administered after 72 hrs post inoculation measured on day 4 post infection
Plasmodium chabaudi [7] = test: Antimicrobial activity against chloroquine-resistant Plasmodium chabaudi ASCQ infected in NIH mice (Mus musculus) at 10 to 160 mg/kg, perorally administered after 72 hrs post inoculation measured on day 4 post infection

SMILES | Activity (Plasmodium chabaudi [1]) | Activity (Plasmodium falciparum [2]) | Activity (Plasmodium falciparum [3]) | Activity (Plasmodium chabaudi [4]) | Activity (Plasmodium chabaudi [5]) | Activity (Plasmodium chabaudi [6]) | Activity (Plasmodium chabaudi [7])
COC(=O)N[C@H](C(=O)N[C@@H](Cc1ccccc1)[C@@H](O)CN(Cc1ccc(-c2ccccn2)cc1)NC(=O)[C@@H](NC(=O)OC)C(C)(C)C)C(C)(C)C | Active | Active | Active | – | – | – | –
Cc1c(O)cccc1C(=O)N[C@@H](CSc1ccccc1)[C@H](O)CN1C[C@H]2CCCC[C@H]2C[C@H]1C(=O)NC(C)(C)C | Active | Active | Active | – | – | – | –
CCN(CC)CCCC(C)Nc1ccnc2cc(Cl)ccc12 (centres undefined) | – | – | – | inactive | – | – | –
CC(C)(C)NC(=O)[C@@H]1C[C@@H]2CCCC[C@@H]2CN1C[C@@H](O)[C@H](Cc1ccccc1)NC(=O)[C@H](CC(N)=O)NC(=O)c1ccc2ccccc2n1 | Active | Active | Active | – | – | – | –
Cc1cccc(C)c1OCC(=O)N[C@@H](Cc1ccccc1)[C@@H](O)C[C@H](Cc1ccccc1)NC(=O)[C@H](C(C)C)N1CCCNC1=O | inactive | Active | Active | – | – | – | –
CC(C)c1nc(CN(C)C(=O)N[C@H](C(=O)N[C@@H](Cc2ccccc2)C[C@H](O)[C@H](Cc2ccccc2)NC(=O)OCc2cncs2)C(C)C)cs1 | Active | Active | Active | – | Active | Active | Active
